US6677310B1, “Ring-expanded nucleosides and nucleotides” (Nabi, priority 1999, dated 2004)

Columns and labels:
Type in all cases: cell-based, human
OVCAR-3 = assay: SRB anti-cancer assay, Ovarian Cancer; details: OVCAR-3 (Ovarian Cancer), 48 h
SK-MEL-28 = assay: SRB anti-cancer assay, Melanoma; details: SK-MEL-28 (Melanoma), 48 h
DU-145 = assay: SRB anti-cancer assay, Prostate Cancer; details: DU-145 (Prostate Cancer), 48 h
M14 = assay: SRB anti-cancer assay, Melanoma; details: 48 h
CCRF-CEM = assay: SRB anti-cancer assay, Leukemia; details: 48 h
SW-620 = assay: SRB anti-cancer assay, Colon Cancer; details: SW-620 (Colon Cancer), 48 h
MALME-3M = assay: SRB anti-cancer assay, Melanoma; details: MALME-3M (Melanoma), 48 h
NCI-H226 = NCI-H226 (Non-Small Cell Lung Cancer), 48 h
HOP-62 = HOP-62 (Non-Small Cell Lung Cancer), 48 h
A549/ATCC = A549/ATCC (Non-Small Cell Lung Cancer), 48 h
COLO 205 = assay: SRB anti-cancer assay, Colon Cancer; details: COLO 205 (Colon Cancer), 48 h
SNB-75 = assay: SRB anti-cancer assay, CNS Cancer; details: SNB-75 (CNS Cancer), 48 h
SF-295 = assay: SRB anti-cancer assay, CNS Cancer; details: SF-295 (CNS Cancer), 48 h
OVCAR-4 = assay: SRB anti-cancer assay, Ovarian Cancer; details: OVCAR-4 (Ovarian Cancer), 48 h
SNB-19 = assay: SRB anti-cancer assay, CNS Cancer; details: SNB-19 (CNS Cancer), 48 h
HCT-15 = assay: SRB anti-cancer assay, Colon Cancer; details: HCT-15 (Colon Cancer), 48 h
UACC-62 = assay: SRB anti-cancer assay, Melanoma; details: UACC-62 (Melanoma), 48 h
NCI-H23 = NCI-H23 (Non-Small Cell Lung Cancer), 48 h
MDA-MB- 231/ATCC = assay: SRB anti-cancer assay, Breast Cancer; details: MDA-MB- 231/ATCC (Breast Cancer), 48 h
SK-OV-3 = assay: SRB anti-cancer assay, Ovarian Cancer; details: SK-OV-3 (Ovarian Cancer), 48 h
NCI-H460 = NCI-H460 (Non-Small Cell Lung Cancer), 48 h
RPMI-8226 = assay: SRB anti-cancer assay, Leukemia; details: RPMI-8226 (Leukemia), 48 h
NCI/ADR-RES = assay: SRB anti-cancer assay, Breast Cancer; details: 48 h
EKVX = EKVX (Non-Small Cell Lung Cancer), 48 h
HCC-2998 = assay: SRB anti-cancer assay, Colon Cancer; details: HCC-2998 (Colon Cancer), 48 h
KM12 = assay: SRB anti-cancer assay, Colon Cancer; details: 48 h
CAKI-1 = assay: SRB anti-cancer assay, Renal Cancer; details: CAKI-1 (Renal Cancer), 48 h
ACHN = assay: SRB anti-cancer assay, Renal Cancer; details: 48 h
MDA-N = assay: SRB anti-cancer assay, Breast Cancer; details: 48 h
[1] = read-out: LC50 (the source's name)

Work on `N=c1[nH]c(=O)c2ncn([C@@H]3O[C@H](CO)[C@@H](O)[C@H]3O)c2c(=O)[nH]1` [Compound 14-1, 6-Imino-6H-1-β-D-ribofuranosyl-4,5,7,8-tetrahydroimidazo[4,5-e][1,3]diazepine-4,8-dione] yielded a GI50 (OVCAR-3) greater than 100 µM, a TGI (OVCAR-3) greater than 100 µM and a CC50 (OVCAR-3; [1]) greater than 100 µM. For the same molecule, the GI50 (SK-MEL-28) was greater than 100 µM, the LC50 (SK-MEL-28) was greater than 100 µM and the TGI (SK-MEL-28) was greater than 100 µM. For the same molecule, the GI50 (DU-145) was greater than 100 µM, the TGI (DU-145) was greater than 100 µM and the CC50 (DU-145; [1]) was greater than 100 µM. It also gave a GI50 (M14) greater than 100 µM, a TGI (M14) greater than 100 µM and a CC50 (M14; [1]) greater than 100 µM. It also gave a GI50 (CCRF-CEM) greater than 100 µM, a TGI (CCRF-CEM) greater than 100 µM and a CC50 (CCRF-CEM; [1]) greater than 100 µM. The GI50 (SW-620) was greater than 100 µM, the TGI (SW-620) was greater than 100 µM and the CC50 (SW-620; [1]) was greater than 100 µM. It also gave a GI50 (MALME-3M) greater than 100 µM, an LC50 (MALME-3M) greater than 100 µM and a TGI (MALME-3M) greater than 100 µM. It also gave a GI50 (NCI-H226) greater than 100 µM, a TGI (NCI-H226) greater than 100 µM and a CC50 (NCI-H226; [1]) greater than 100 µM. It also gave a GI50 (HOP-62) greater than 100 µM, an LC50 (concentration for 50% net cell kill) (HOP-62) greater than 100 µM and a TGI (HOP-62) greater than 100 µM. For the same molecule, the GI50 (A549/ATCC) was greater than 100 µM, the TGI (A549/ATCC) was greater than 100 µM and the CC50 (A549/ATCC; [1]) was greater than 100 µM. For the same molecule, the GI50 (COLO 205) was greater than 100 µM, the LC50 (COLO 205) was greater than 100 µM and the TGI (COLO 205) was greater than 100 µM. It also gave an LC50 (concentration killing 50% of cells) (SNB-75) greater than 100 µM, a TGI (SNB-75) greater than 100 µM and a GI50 (SF-295) greater than 100 µM. For the same molecule, the TGI (SF-295) was greater than 100 µM, the CC50 (SF-295; [1]) was greater than 100 µM and the GI50 (OVCAR-4) was greater than 100 µM. For the same molecule, the TGI (OVCAR-4) was greater than 100 µM, the CC50 (OVCAR-4; [1]) was greater than 100 µM and the GI50 (SNB-19) was greater than 100 µM. The TGI (SNB-19) was greater than 100 µM, the CC50 (SNB-19; [1]) was greater than 100 µM and the GI50 (HCT-15) was greater than 100 µM. For the same molecule, the TGI (HCT-15) was greater than 100 µM, the CC50 (HCT-15; [1]) was greater than 100 µM and the GI50 (UACC-62) was greater than 100 µM. For the same molecule, the TGI (UACC-62) was greater than 100 µM, the CC50 (UACC-62; [1]) was greater than 100 µM and the GI50 (NCI-H23) was greater than 100 µM. The TGI (NCI-H23) was greater than 100 µM, the CC50 (NCI-H23; [1]) was greater than 100 µM and the TGI (MDA-MB- 231/ATCC) was greater than 100 µM. It also gave a CC50 (MDA-MB- 231/ATCC; [1]) greater than 100 µM, a GI50 (SK-OV-3) greater than 100 µM and a TGI (SK-OV-3) greater than 100 µM. For the same molecule, the CC50 (SK-OV-3; [1]) was greater than 100 µM, the GI50 (NCI-H460) was greater than 100 µM and the TGI (NCI-H460) was greater than 100 µM. It also gave a CC50 (NCI-H460; [1]) greater than 100 µM, a GI50 (RPMI-8226) greater than 100 µM and a TGI (RPMI-8226) greater than 100 µM. The CC50 (RPMI-8226; [1]) was greater than 100 µM, the GI50 (NCI/ADR-RES) was greater than 100 µM and the TGI (NCI/ADR-RES) was greater than 100 µM. It also gave a CC50 (NCI/ADR-RES; [1]) greater than 100 µM, a GI50 (EKVX) greater than 100 µM and a TGI (EKVX) greater than 100 µM. It also gave a CC50 (EKVX; [1]) greater than 100 µM, a GI50 (HCC-2998) greater than 100 µM and a TGI (HCC-2998) greater than 100 µM. It also gave a CC50 (HCC-2998; [1]) greater than 100 µM, a GI50 (KM12) greater than 100 µM and an LC50 (KM12) greater than 100 µM. The TGI (KM12) was greater than 100 µM, the GI50 (CAKI-1) was greater than 100 µM and the TGI (CAKI-1) was greater than 100 µM. For the same molecule, the CC50 (CAKI-1; [1]) was greater than 100 µM, the GI50 (ACHN) was greater than 100 µM and the TGI (ACHN) was greater than 100 µM. The CC50 (ACHN; [1]) was greater than 100 µM, the GI50 (MDA-N) was greater than 100 µM and the TGI (MDA-N) was greater than 100 µM. The CC50 (MDA-N; [1]) was greater than 100 µM.
